Measured values taken from patent US20260256833A1, “USE OF BORON FOR THE TREATMENT OF LEISHMANIASIS DISEASE” (YEDITEPE UNIVERSITESI, priority 2023, published 2026).
Read-outs that look alike come from different tables or passages of the source.

Experiments:
[1] = test system: leishmaniasis; conditions: cited from earlier work
[2] = test system: L. infantum promastigotes; assay: Phase-contrast and SEM morphology of parasites; assay type: cell-based, Leishmania infantum; conditions: 24 and 48 hours of incubation with SPT
Description: In parallel to this, Leishmania parasites incubated with SPT at different concentrations were morphologically examined under scanning electron microscopy.

[3] = test system: macrophages infected with L. infantum; assay: Infection rate of infected macrophages by flow cytometry; assay type: cell-based, Leishmania infantum; conditions: SPT 50, 75, 100, 150, 200 and 400 μM; 24, 48 and 72 hours
Description: RAW264.7 macrophage cells and L. infantum promastigotes were stained with PKH26 (Red Fluorescent Cell Linker Kit, Sigma-Aldrich) and PKH67 (Green Fluorescent Cell Linker Kit, Sigma-Aldrich), respectively, according to the procedure described previously in the article by Islek et al. (2021). A total cell concentration of 10^7 cells/ml was used. Before infection, the staining rate of parasites and cells was determined by flow cytometry.
The effect of SPT on the proliferation of macrophage cells infected with parasites is analyzed. In summary, macrophages are infected with parasites at 37° C. at a ratio of 10:1 (parasite: macrophage). After 3 and a half hours, infected macrophages are washed with medium to remove the remaining parasites. Infected macrophages are left to incubate with SPT at different concentration ranges at 37° C. for 3 days, fixed at the end of 3 days and the infection rate is determined by flow cytometer. The percentage of infection is determined according to the following formula: […]

[4] = test system: L. infantum promastigotes; assay: Mitochondrial membrane potential, Rhodamine 123; assay type: cell-based, Leishmania infantum
Description: Mitochondrial membrane potential (ΔΨPm) is measured by using Rhodamine 123 mitochondrial specific fluorescent dye (Sigma-Aldrich). In summary, cells were seeded in a 48-well plate at 300.000 parasites/well. The following day, parasites are treated with SPT at various concentrations (50-400 uM) for 24 and 48 hours. After incubation, cells are resuspended in serum-free RPMI containing 10 μM Rhodamine 123 and incubated in the dark at 37-C for 30 minutes. They are then centrifuged and washed twice with 1×DPBS. The cell suspension is transferred to a 96-well plate and fluorescence intensities are measured at 490 nm excitation and 515 nm emission by using a spectrophoto-fluorimeter (Varioskan LUX multimode reader, Thermo Scientific). Absorbance is evaluated as a fold change with respect to the negative control group.

[5] = test system: Leishmania infantum (MHOM/MA/67/ITMA-P263) promastigotes; assay: Resazurin / Alamar Blue viability assay on promastigotes; assay type: cell-based; conditions: for parasite viability: SPT above 100 μM
Description: Leishmania infantum (MHOM/MA/67/ITMA-P263) promastigotes are incubated in RPMI medium (heat inactivated 10% fetal bovine serum, 2 mM L-glutamine, 20 mM HEPES, 100 U/ml penicillin, 100 μg/ml streptomycin) at 27° C. Parasites reaching the logarithmic phase (10^6/ml) are made infective.
Leishmania parasites are incubated in culture medium and the effect of SPT on the proliferation of their promastigotes is analyzed. In summary, Leishmania infantum (MHOM/MA/67/ITMA-P263) promastigotes are incubated in RPMI medium (heat inactivated 10% fetal bovine serum, 2 mM L-glutamine, 20 mM Hepes, 100 U/ml penicillin, 100 μg/ml streptomycin) at 27° C. […] The viability of the parasites is determined by applying Alamar Blue assay. By obtaining IC50 values from the samples whose fluorescence intensities are read according to the Alamar Blue assay protocol, the activities of SPT are determined.

In the case of `C[C@@H]1[C@H](O)[C@@H](C)/C=C/C=C/C=C/C=C/C=C/C=C/C=C/[C@H](O[C@@H]2O[C@H](C)[C@@H](O)[C@H](N)[C@@H]2O)C[C@@H]2O[C@](O)(C[C@@H](O)C[C@@H](O)[C@H](O)CC[C@@H](O)C[C@@H](O)CC(=O)O[C@H]1C)C[C@H](O)[C@H]2C(=O)O` [Amphotericin B], the “cure (comparison data)” value ([1]; 6-month therapy) is listed as 97% and the cure rate ([1]; cases where antimonial resistance is observed) is listed as roughly 100%.
In the case of `CCCCCCCCCCCCCCCCOP(=O)([O-])OCC[N+](C)(C)C` [Miltefosine], the “cure (comparison data)” value ([1]; miltefosine data compared with 6-month Amphotericin B therapy) is listed as 94% and the cure level ([1]; oral, 3-4-week treatment) is listed as 95-100%.
With `O.O.O.O.[Na+].[O-]B1OO1` [SPT, sodium perborate tetrahydrate] the “cell number and morphology by microscopy” value [2] was “dose-dependent decrease in cell number”, the infection rate [3] was “infection rate did not increase regardless of time and concentration” and the mitochondrial membrane potential ([4]; SPT 100 μM, 24 hours) was 52.2%. It also gave a mitochondrial membrane potential ([4]; SPT 100 μM, 48 hours) of 32.8%, a mitochondrial membrane potential ([4]; SPT 150 μM, 24 hours) of 39.1% and a mitochondrial membrane potential ([4]; SPT 150 μM, 48 hours) of 34.1%. For the same compound, the mitochondrial membrane potential ([4]; SPT 200 μM, 24 hours) was 57.5%, the mitochondrial membrane potential ([4]; SPT 200 μM, 48 hours) was 41.5% and the mitochondrial membrane potential ([4]; SPT 400 μM, 24 hours) was 44.6%. For the same compound, the mitochondrial membrane potential ([4]; SPT 400 μM, 48 hours) was 30.1%, the “percentage of mitochondrial membrane potential” value ([4]; SPT ≤75 uM, 24 and 48 hours) was “above 80%” and the mitochondrial membrane potential ([4]; SPT ≥100 μM, 24 hours) was “below 53%”. For the same compound, the mitochondrial membrane potential ([4]; SPT ≥100 μM, 48 hours) was “below 35%”, the IC50 ([5]; 72 hours) was 72 ± 7.51 µM and the cell viability ([5]; SPT 75 μM, 24 hours) was “below 80%”. The cell viability ([5]; SPT 75 μM, 48 hours) was less than 55%, the viability of promastigotes ([5]; SPT 75 μM, 72 hours) was 50% and the “reduction in parasite viability” value ([5]; SPT 100, 125, 150 and 200 μM, 72 hours) was “approximately 80%”. For the same compound, the parasite viability ([5]; 24 hours) was less than 33%, the parasite viability ([5]; 48 hours) was less than 25% and the cell viability ([5]; SPT ≤50 uM, 24, 48 and 72 hours) was “above 80%”.
